In EP4737454A1, “GLP-1 RECEPTOR AGONIST, AND PREPARATION METHOD THEREFOR AND USE THEREOF” (Wayne Biotechnology Co., Ltd., priority 2023, dated 2025):

Experiments:
[1] = molecular target: Human GLP-1R (Homo sapiens, UniProt P43220); experiment: cAMP level determination in human GLP-1R stably transfected HEK293T cells (HTRF cAMP kit); format: cell-based; conditions: 37°C 30 min
In short: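 Stably transfected HEK293T cells (1 Million/mL) stimulated 30 min at 37°C with compound (top final 2000 nM, 1:3, 11 points, 0.2% DMSO) plus 0.5 mM IBMX. HTRF cAMP read after 2 hr RT; stimulation % normalised to 100 nM GLP-1 and DMSO wells, cAMP from standard curve, EC50 by four-parameter fit.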

[2] = Pharmacokinetic analysis of compounds in mouse plasma after oral gavage or intravenous injection; format: in vivo, Male C57BL/6J mice; conditions: for AUC(0-t) at 24 h / Cmax / Tmax / half-life / clearance: mouse plasma; for AUC(0-t) at 24 h / Cmax / Tmax: dose 5 mg/kg single oral gavage; for half-life: table dose 5 mg/kg (oral gavage); for clearance: table dose 5 mg/kg, IV arm was 1 mg/kg; for F: mouse, PO 5 mg/kg versus IV 1 mg/kg
Method: Male C57BL/6J mice, approximately 30 g, 6-9 weeks old, gavage oral administration and intravenous injection: 3 mice per compound, animals from Shanghai Medicilon Inc.
The pharmacokinetic characteristics of the compounds were tested in mice after oral gavage (PO) or intravenous injection (IV) using a standard protocol. The test compounds were prepared as clear solutions with the vehicle: 10% (v/v) DMSO + 10% (v/v) Solutol + 80% (v/v) Saline. Three mice were administered a single oral gavage dose of 5 mg/kg, and blood samples were collected at 0.25, 0.5, 1, 2, 4, 6, 8, and 24 hours post-dose via submandibular vein or other appropriate methods. Each sample collected was approximately 0.03 mL, anticoagulated with sodium heparin, and placed on ice after collection. Additionally, three mice were administered a single intravenous injection of 1 mg/kg of the test compound, and blood samples were collected at 0.083, 0.25, 0.5, 1, 2, 4, 8, and 24 hours post-dose via submandibular vein or other appropriate methods. Each sample collected was approximately 0.03 mL, anticoagulated with sodium heparin, and placed on ice after collection. Plasma was separated by centrifugation within 1 hour (centrifugation conditions: 6800g, 6 minutes, 2-8°C), and the concentration of the compounds of the present invention was analyzed by LC-MS/MS method.
Prior to analysis, all samples were stored at -80°C, and pharmacokinetic parameters were calculated using Phoenix WinNonlin. Table 2: Pharmacokinetic Parameters

Sequence of Human GLP-1R (P43220 24-463): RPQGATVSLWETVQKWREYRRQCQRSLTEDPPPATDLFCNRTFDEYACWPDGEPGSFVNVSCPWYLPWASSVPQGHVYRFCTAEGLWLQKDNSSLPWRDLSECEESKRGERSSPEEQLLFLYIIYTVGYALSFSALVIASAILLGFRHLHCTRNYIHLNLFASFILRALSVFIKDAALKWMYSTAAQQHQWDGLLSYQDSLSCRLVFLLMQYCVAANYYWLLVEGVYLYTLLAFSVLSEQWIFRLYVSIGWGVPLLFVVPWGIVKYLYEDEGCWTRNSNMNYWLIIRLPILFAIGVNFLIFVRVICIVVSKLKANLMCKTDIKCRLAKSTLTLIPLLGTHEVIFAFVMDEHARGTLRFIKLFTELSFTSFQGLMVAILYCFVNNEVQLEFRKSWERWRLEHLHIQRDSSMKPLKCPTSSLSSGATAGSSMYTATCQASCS

SMILES | EC50 [1] [nM] | AUC(0-t) at 24 h [2] [ng·h/mL] | Cmax [2] [ng/mL] | Tmax [2] [h] | half-life [2] [h] | clearance [2] [mL/min/kg] | F [2] [%]
Cc1cc(-n2nc3c(c2-n2ccn(-c4ccc(C(=O)N(C)C5CC5)c(Cl)c4)c2=O)[C@H](C)N(C(=O)c2cc4cc([C@H]5CCOC(C)(C)C5)ccc4n2[C@@]2(c4nc(=O)o[nH]4)C[C@@H]2C)CC3)cc(C)c1F [Compound 11] | 5.03 | 35200 | 3170 | 3 | 4.27 | 2.02 | 87.27
Cc1cc(-n2nc3c(c2-n2ccn(-c4ccc(C(=O)N(C)C5CC5)c(F)c4F)c2=O)[C@H](C)N(C(=O)c2cc4cc([C@H]5CCOC(C)(C)C5)ccc4n2[C@@]2(c4nc(=O)o[nH]4)C[C@@H]2C)CC3)cc(C)c1F [Compound 5] | 7.69 | 36700 | 3880 | 1.33 | 3.11 | 2.38 | 105.86
Cc1cc(-n2nc3c(c2-n2ccn(-c4ccc(C(=O)N(C)C5CC5)c(Cl)c4F)c2=O)[C@H](C)N(C(=O)c2cc4cc([C@H]5CCOC(C)(C)C5)ccc4n2[C@@]2(c4nc(=O)o[nH]4)C[C@@H]2C)CC3)cc(C)c1F [Compound 7] | 6.12 | 34700 | 3120 | 1.33 | 3.41 | 1.94 | 81.76
Cc1cc(-n2nc3c(c2-n2ccn(-c4ccc(N(C)C(=O)C5CC5)c(Cl)c4F)c2=O)[C@H](C)N(C(=O)c2cc4cc([C@H]5CCOC(C)(C)C5)ccc4n2[C@@]2(c4nc(=O)o[nH]4)C[C@@H]2C)CC3)cc(C)c1F [Compound 73] | 6.25 | – | – | – | – | – | –
Cc1cc(-n2nc3c(c2-n2ccn(-c4ccc(C(F)(F)F)c(C(=O)N(C)C5CC5)c4)c2=O)[C@H](C)N(C(=O)c2cc4cc(C5CCOC(C)(C)C5)ccc4n2[C@@]2(c4nc(=O)o[nH]4)C[C@@H]2C)CC3)cc(C)c1F (stereo partly shown) [Compound 37] | 18.8 | – | – | – | – | – | –
Cc1cc(-n2nc3c(c2-n2ccn(-c4ccc(C#N)cc4F)c2=O)[C@H](C)N(C(=O)c2cc4cc(C5CCOC(C)(C)C5)ccc4n2[C@@]2(c4nc(=O)o[nH]4)C[C@@H]2C)CC3)cc(C)c1F (stereo partly shown) [Compound 81] | 11 | – | – | – | – | – | –
Cc1cc(-n2nc3c(c2-n2ccn(-c4ccc(N(C)C5CC5)c(F)c4)c2=O)[C@H](C)N(C(=O)c2cc4cc(C5CCOC(C)(C)C5)ccc4n2[C@@]2(c4noc(=O)[nH]4)C[C@@H]2C)CC3)cc(C)c1F (stereo partly shown) [Compound 68] | 18 | – | – | – | – | – | –
